Where a SMILES comes first, the peptide text is derived from it. [ ]: non-standard residue; d: D form. pS = N[C@@H](COP(=O)(O)O)C(=O)O
Assays:
α-amylase = assay: Peptide stability in artificial saliva with α-amylase (HPLC); format: in vitro ADME; conditions: 37 °C
Description: (§1) Solutions of MMP8, MMP1 (R&D systems, Minneapolis, MN, USA), α-amylase, and lysozyme (Sigma, Burlington, MA, USA) were prepared following the manufacturer’s instructions. Prior to each use, pro-MMP1 and pro-MMP8 were activated with 10 mM APMA according to the manufacturer’s protocol (R&D Systems). Successful cleavage of both enzymes into their active form was confirmed using SDS-PAGE gel electrophoresis. To better mimic in vivo oral conditions, all enzymes were used at concentrations found in healthy individuals, as reported in the literature: MMP8 (final 0.286 μg/mL; [30], MMP1 (final 20 pg/mL [31], α-amylase (final 119 U/mL; [32], and lysozyme (final 0.4 μg/mL [30]. A total of 125 μL of aqueous P26 or P26-CS solutions (0.2 mg/mL final) was added to an equal volume of artificial saliva (AS; 1.2 mM CaCl2·2H2O, 50 mM HEPES buffer, 0.72 mM KH2PO4, 16 mM KCl, 4.5 mM NH4Cl, 0.2 mM MgCl2·6H20, and 1 ppm NaF). Then, the enzymes were mixed in and immediately placed in a water bath at 37 °C. An initial collection was (t = 0) carried out and analyzed by Reverse-phase High-Performance Liquid Chromatography (HPLC), as described below. Incubations for each sample were performed in triplicate. To quantify the effect of each enzyme, individual enzymes were incubated with 125 μL of P26-CS and 125 μL of AS. […]

[1] = test system: MMP8, MMP1, α-amylase, and lysozyme; assay: Peptide stability in artificial saliva with individual salivary enzymes (HPLC peak area); format: in vitro ADME; conditions: individual enzymes at native concentrations, peptide 0.2 mg/mL, 30 min, 37 °C, RP-HPLC C18 peak area, triplicate
Description: as §1

[2] = Self-degradation of P26 without enzymes (LC/MS); format: physicochemical; conditions: P26 solution 0.2 mg/mL, 37 °C, 7 days
Description: P26 amelogenin peptide was synthetized by Biomer Technology (San Francisco, CA, USA). P26 solutions (0.2 mg/mL) were prepared as previously described and incubated at 37 °C for 7 days and subsequently analyzed by liquid chromatography/mass spectrometry (LC/MS; Scripps Research Institute, San Diego, CA, USA). Significant peaks in the MS spectra were matched to degradation products of P26 based on their m/z.

[3] = test system: MMP1, MMP8, α-amylase, and lysozyme; assay: Peptide stability in artificial saliva with all salivary enzymes simultaneously (HPLC); format: in vitro ADME; conditions: all enzymes at native concentrations, 30 min, 37 °C, n = 3
Description: as §1

[4] = P26 in aqueous solution, without enzymes; conditions: 37 °C, up to 7 days

| Compound | degradation products at diluted amylase versus native ratio (α-amylase; α-amylase 23.87 U/mL (5× dilution, enzyme to substrate 1:10) compared with 1:2, artificial saliva, HPLC spectra) | degradation by amylase relative to other enzymes (α-amylase; α-amylase 119 U/mL (enzyme to substrate 1:2), artificial saliva, 5 h, HPLC) | peptide substrate remaining (% area of initial HPLC peak at t = 0) [1] | self-degradation of the peptide without enzymes [2] | peptide stability, P26 versus P26 with CS [3] | cleaved bond [4] |
| --- | --- | --- | --- | --- | --- | --- |
| CSCC[C@H](N)C(=O)N1CCC[C@H]1C(=O)N[C@@H](CC(C)C)C(=O)N1CCC[C@H]1C(=O)N[C@@H](COP(=O)(O)O)C(=O)N[C@@H](Cc1ccc(O)cc1)C(=O)N[C@@H](CCC(=O)O)C(=O)N[C@H](C(=O)N[C@@H](CC(C)C)C(=O)N[C@H](C(=O)N1CCC[C@H]1C(=O)N[C@@H](CC(C)C)C(=O)N[C@@H](CCCCN)C(=O)N[C@@H](Cc1c[nH]c2ccccc12)C(=O)N1CCC[C@H]1C(=O)N[C@@H](CO)C(=O)N[C@H](C(=O)N[C@@H](CC(=O)O)C(=O)N[C@@H](CCCCN)C(=O)N[C@H](C(=O)N[C@@H](CCCCN)C(=O)N[C@@H](CCCNC(=N)N)C(=O)N[C@@H](CCC(=O)O)C(=O)N[C@@H](CCC(=O)O)C(=O)N[C@H](C(=O)N[C@@H](CC(=O)O)C(=O)O)C(C)C)[C@@H](C)O)[C@@H](C)O)[C@@H](C)O)C(C)C [P26] (H-MPLP[pS]YEVLTPLKWPSTDKTKREEVD-OH) | lesser degradation products | highest levels of degradation amongst all the enzymes used | 90–100% | substantially resistant to self-degradation | comparably stable | – |
| MPLPS(PHOS)YEVLTPLKWPSTDKTKREEVD | – | – | – | – | – | M-P and V-D and E-E and L-P and P-S(PHOS) |
